Test results published in patent US20250051347A1, “BIFUNCTIONAL CHIMERIC HETEROCYCLIC COMPOUND AND USE THEREOF AS ANDROGEN RECEPTOR DEGRADER” (Hinova Pharmaceuticals, Inc., priority 2021, published 2025).

Target: T1, androgen receptor (AR) splicing variant AR-v7 (Homo sapiens, UniProt P10275)
T1 construct: The degradation activity of compounds on AR-v7 in 22RV1 cells; host or cells: 22RV1 cells
T1 sequence (P10275 1-644 isoform P10275-3): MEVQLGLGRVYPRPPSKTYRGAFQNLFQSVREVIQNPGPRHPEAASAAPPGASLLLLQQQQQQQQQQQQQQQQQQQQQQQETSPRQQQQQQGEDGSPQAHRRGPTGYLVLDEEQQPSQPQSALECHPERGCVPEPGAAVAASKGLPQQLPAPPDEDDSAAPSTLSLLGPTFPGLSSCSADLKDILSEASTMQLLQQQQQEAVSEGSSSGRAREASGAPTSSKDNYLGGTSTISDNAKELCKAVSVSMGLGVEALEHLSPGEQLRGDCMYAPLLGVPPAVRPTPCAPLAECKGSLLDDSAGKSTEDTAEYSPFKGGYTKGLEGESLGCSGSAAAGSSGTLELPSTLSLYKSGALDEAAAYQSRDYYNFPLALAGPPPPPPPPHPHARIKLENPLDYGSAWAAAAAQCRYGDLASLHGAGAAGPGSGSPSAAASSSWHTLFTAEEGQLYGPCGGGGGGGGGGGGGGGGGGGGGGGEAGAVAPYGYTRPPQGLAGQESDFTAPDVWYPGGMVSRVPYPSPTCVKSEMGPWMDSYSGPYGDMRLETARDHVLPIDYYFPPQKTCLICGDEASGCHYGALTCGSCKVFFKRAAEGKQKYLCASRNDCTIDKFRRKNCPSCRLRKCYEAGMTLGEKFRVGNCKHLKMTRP
Assay: Degradation activity on androgen receptor splicing variant AR-v7 in 22RV1 cells (ELISA)
Assay type: cell-based
Conditions: AR-v7 degradation in 22RV1 cells, 48 h
Procedure: The degradation activity of the compound of the present invention on the androgen receptor splicing variant AR-V7 was analyzed using enzyme-linked immunosorbent assay (ELISA).
The plate was cultured in a 5% CO2 cell incubator at 37° C. for 2 days until the cells adhered to the wall. • 2) The drug was prepared into 10 mM stock solution with dimethylsulfoxide (DMSO). […] The plate was gently shaken and mixed. In addition, negative control wells (only containing culture medium) and positive control wells (only containing cells and DMSO) were set. • 3) After the cells were cultured in an incubator for 48 h, the medium was removed and the cells were rinsed once with ice cold PBS. Then, ice-cold 1× cell lysis buffer was added to each well of the cell culture plate. After the plate was incubated on ice for 15 min, the plate was tapped to mix. • 4) The supernatant of the cell lysate was transferred from the cell culture plate to a […] plate for ELISA. • 5) The newly prepared Capture antibody (green) was mixed with the newly prepared HRP-labeled antibody (red), and then the antibody mixture was added to the above 96-well ELISA plate. • 6) The ELISA plate was sealed with plastic film, and then incubated in a 25° C. incubator for 1 h. • 7) The washing buffer was added to each well, and then TMB substrate was added to each well of the ELISA plate. Subsequently, the plate was cultured in an incubator at 37° C. for 5 min. • 8) 100 μl of stop solution was added to each well of the ELISA plate, and the plate was gently tapped for several seconds. The absorbance was read at 450 nm within 30 min. The data were analyzed by the Dose-response equation in the software GraphPad Prism8, to obtain DC50 and Dmax values.

Compound | DC50 (class symbols) | DC50 (numeric values)
CC(C)(c1ccc(OCCCCCCCCOCCN2CCN(c3ccc4c(c3)C(=O)N(C3CCC(=O)NC3=O)C4=O)CC2)cc1)c1ccc(OCc2ccnc(NS(C)(=O)=O)n2)cc1 (stereo not shown) [Example 1, N-(4-((4-(2-(4-((8-(2-(4-(2-(2,6-dioxopiperidin-3-yl)-1,3-dioxoisoindolin-5-yl)piperazin-1-yl)ethoxy)octyl)oxy)phenyl)propan-2-yl)phenoxy)methyl)pyrimidin-2-yl)methanesulfonamide] | 0.101 to 1 µM | 
CC(C)(c1ccc(OCCCCCCCOCCN2CCN(c3ccc4c(c3)C(=O)N(C3CCC(=O)NC3=O)C4=O)CC2)cc1)c1ccc(OCc2ccnc(NS(C)(=O)=O)n2)cc1 (stereo not shown) [Example 2, N-(4-((4-(2-(4-((7-(2-(4-(2-(2,6-dioxopiperidin-3-yl)-1,3-dioxoisoindolin-5-yl)piperazin-1-yl)ethoxy)heptyl)oxy)phenyl)propan-2-yl)phenoxy)methyl)pyrimidin-2-yl)methanesulfonamide] | 0.101 to 1 µM | 
CC(C)(c1ccc(OCCCCOCCCCN2CCC3(CC2)CN(c2ccc4c(c2)C(=O)N(C2CCC(=O)NC2=O)C4=O)C3)cc1)c1ccc(OCc2ccnc(NS(C)(=O)=O)n2)cc1 (stereo not shown) [Example 3] |  | > 10 µM
CC(C)(c1ccc(OCCCOCCCN2CCC3(CC2)CN(c2ccc4c(c2)C(=O)N(C2CCC(=O)NC2=O)C4=O)C3)cc1)c1ccc(OCc2ccnc(NS(C)(=O)=O)n2)cc1 (stereo not shown) [Example 4] |  | > 10 µM
CC(C)(c1ccc(OCCCCCCCCCN2CCN(C3CN(c4ccc5c(c4)C(=O)N(C4CCC(=O)NC4=O)C5=O)C3)CC2)cc1)c1ccc(OCc2ccnc(NS(C)(=O)=O)n2)cc1 (stereo not shown) [Example 5, N-(4-((4-(2-(4-((9-(4-(1-(2-(2,6-dioxopiperidin-3-yl)-1,3-dioxoisoindolin-5-yl)azetidin-3-yl)piperazin-1-yl)nonyl)oxy)phenyl)propan-2-yl)phenoxy)methyl)pyrimidin-2-yl)methanesulfonamide] |  | > 10 µM
CC(C)(c1ccc(OCCCCCCOCCCCN2CCN(c3ccc4c(c3)C(=O)N(C3CCC(=O)NC3=O)C4=O)CC2)cc1)c1ccc(OCc2ccnc(NS(C)(=O)=O)n2)cc1 (stereo not shown) [Example 8, N-(4-((4-(2-(4-((6-(4-(4-(2-(2,6-dioxopiperidin-3-yl)-1,3-dioxoisoindolin-5-yl)piperazin-1-yl)butoxy)hexyl)oxy)phenyl)propan-2-yl)phenoxy)methyl)pyrimidin-2-yl)methanesulfonamide] |  | 5.27 µM

Further lines, results first:

DC50 (class symbols) | DC50 (numeric values) | Compound
0.011 to 0.1 µM |  | 5-(((1s,3s)-3-(4-(2-(4-((2-(2H-1,2,3-triazol-2-yl)pyrimidin-5-yl)oxy)phenyl)propan-2-yl)phenoxy)cyclobutyl)amino)-2-(2,6-dioxopiperidin-3-yl)isoindolin-1,3-dione [Example 482]
0.101 to 1 µM |  | CC(C)(c1ccc(OCc2ccnc(N3CC4(COC4)C3)n2)cc1)c1ccc(OC2CCC[C@@H](Nc3ccc4c(c3)C(=O)N(C3CCC(=O)NC3=O)C4=O)C2)cc1 (stereo in doubt) [Example 493, 5-((3-(4-(2-(4-((2-(2-oxa-6-azaspiro[3.3]heptan-6-yl)pyrimidin-4-yl)methoxy)phenyl)propan-2-yl)phenoxy)cyclohexyl)amino)-2-(2,6-dioxopiperidin-3-yl)isoindolin-1,3-dione]
 | 6.33 µM | CC(C)(c1ccc(OCCCCCCN2CCC(CN3CCN(c4ccc5c(c4)C(=O)N(C4CCC(=O)NC4=O)C5=O)CC3)CC2)cc1)c1ccc(OCc2ccnc(NS(C)(=O)=O)n2)cc1 (stereo not shown) [Example 6]
 | > 10 µM | CC(C)(c1ccc(OCCCCCCCOCCCN2CCN(c3ccc4c(c3)C(=O)N(C3CCC(=O)NC3=O)C4=O)CC2)cc1)c1ccc(OCc2ccnc(NS(C)(=O)=O)n2)cc1 (stereo not shown) [Example 7, N-(4-((4-(2-(4-((7-(3-(4-(2-(2,6-dioxopiperidin-3-yl)-1,3-dioxoisoindolin-5-yl)piperazin-1-yl)propoxy)heptyl)oxy)phenyl)propan-2-yl)phenoxy)methyl)pyrimidin-2-yl)methanesulfonamide]
